Experimental data reported in patent publication US10035801B2, “Pyrazolo compounds and uses thereof” (CONSTELLATION PHARMACEUTICALS, INC., priority 2013, dated 2018).

Experiments:
Type in all cases: biochemical
GASC1 = target: T1, GASC1 (Homo sapiens, UniProt Q9H3R0); experiment: GASC1 demethylation assay on H3K9Me3 peptide (RapidFire HT-MS); conditions: read-out: GASC1 Inhibition
T1 construct: 6×His tagged recombinant GASC1 (N 350aa) was purified from E. Coli BL21(DE3); 6xHis; made in house; host or cells: E. coli BL21(DE3)
T1 sequence (Q9H3R0 1-350 limits assumed): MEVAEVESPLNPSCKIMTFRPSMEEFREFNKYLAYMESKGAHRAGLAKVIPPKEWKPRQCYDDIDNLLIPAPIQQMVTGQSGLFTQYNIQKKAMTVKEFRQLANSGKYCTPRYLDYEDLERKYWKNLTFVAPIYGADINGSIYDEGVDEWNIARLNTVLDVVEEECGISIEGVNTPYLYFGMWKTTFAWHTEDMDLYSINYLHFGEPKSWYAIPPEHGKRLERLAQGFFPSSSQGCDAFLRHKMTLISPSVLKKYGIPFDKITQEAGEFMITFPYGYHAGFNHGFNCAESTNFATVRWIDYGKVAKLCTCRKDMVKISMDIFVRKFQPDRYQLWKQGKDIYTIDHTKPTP
Procedure: 6×His tagged recombinant GASC1 (N 350aa) was purified from E. Coli BL21(DE3) to near homogeneity. The demethylation reaction buffer contained 50 mM TrisCl pH 7.5, 0.01% Triton X-100, 5% glycerol, 1 mM ascorbate (Cat# A4034, Sigma Aldrich), 5 μM α-ketoglutarate (# K2010, Sigma Aldrich) and 20 μM Fe2(NH4)2(SO4)2 (Cat# F1543, Sigma Aldrich). In 25 μL demethylation reaction system, 400 nM recombinant GASC1 and 20 μM H3K9me3 peptide (1-21 aa) were incubated with compounds for 10 minutes, and then α-ketoglutarate and Fe2(NH4)2(SO4)2 were added to initiate the reaction. All of the reactions were incubated for 45 minutes at room temperature, and then 25 μl of 1 N HCl was added to quench the reactions. After termination, plates were sealed and frozen at −80° C. and shipped on dry ice to BioTrove Inc. (Woburn, Mass.) for analysis.
All the reactions were read by RapidFire™ HT-MS platform developed in BioTrove Inc, and the method has been described in detail previously (Assay and Drug Development Technologies, 2004; 2(4): 373-381). Briefly, at BioTrove, plates were thawed and immediately analyzed using RapidFire™ system coupled to a Sciex API4000 triple quadrapole mass spectrometer. The samples were delivered directly from the plate to a clean-up cartridge (BioTrove column A) to remove nonvolatile assay components with 0.1% formic acid in a 3-sec wash cycle. The peptide substrate and demethylated product were coeluted to the mass spectrometer with 80% acetonitrile, 0.1% formic acid. Both the substrate and product signals were read at their +5 charge species, and the conversion from substrate to product is assessed by [H3K9me2 Read]/[H3K9me2 Read+H3K9me3 Read].

PLU-1 = target: T2, PLU-1 (Homo sapiens, UniProt Q9UGL1); experiment: PLU-1 demethylase assay on H3K4Me3 peptide (RapidFire HT-MS)
T2 construct: FLAG tagged full length recombinant JARID1A and PLU1 proteins were purified from Sf9 insect cells; FLAG; made in house; host or cells: Sf9 insect cells
T2 sequence (Q9UGL1 whole entry): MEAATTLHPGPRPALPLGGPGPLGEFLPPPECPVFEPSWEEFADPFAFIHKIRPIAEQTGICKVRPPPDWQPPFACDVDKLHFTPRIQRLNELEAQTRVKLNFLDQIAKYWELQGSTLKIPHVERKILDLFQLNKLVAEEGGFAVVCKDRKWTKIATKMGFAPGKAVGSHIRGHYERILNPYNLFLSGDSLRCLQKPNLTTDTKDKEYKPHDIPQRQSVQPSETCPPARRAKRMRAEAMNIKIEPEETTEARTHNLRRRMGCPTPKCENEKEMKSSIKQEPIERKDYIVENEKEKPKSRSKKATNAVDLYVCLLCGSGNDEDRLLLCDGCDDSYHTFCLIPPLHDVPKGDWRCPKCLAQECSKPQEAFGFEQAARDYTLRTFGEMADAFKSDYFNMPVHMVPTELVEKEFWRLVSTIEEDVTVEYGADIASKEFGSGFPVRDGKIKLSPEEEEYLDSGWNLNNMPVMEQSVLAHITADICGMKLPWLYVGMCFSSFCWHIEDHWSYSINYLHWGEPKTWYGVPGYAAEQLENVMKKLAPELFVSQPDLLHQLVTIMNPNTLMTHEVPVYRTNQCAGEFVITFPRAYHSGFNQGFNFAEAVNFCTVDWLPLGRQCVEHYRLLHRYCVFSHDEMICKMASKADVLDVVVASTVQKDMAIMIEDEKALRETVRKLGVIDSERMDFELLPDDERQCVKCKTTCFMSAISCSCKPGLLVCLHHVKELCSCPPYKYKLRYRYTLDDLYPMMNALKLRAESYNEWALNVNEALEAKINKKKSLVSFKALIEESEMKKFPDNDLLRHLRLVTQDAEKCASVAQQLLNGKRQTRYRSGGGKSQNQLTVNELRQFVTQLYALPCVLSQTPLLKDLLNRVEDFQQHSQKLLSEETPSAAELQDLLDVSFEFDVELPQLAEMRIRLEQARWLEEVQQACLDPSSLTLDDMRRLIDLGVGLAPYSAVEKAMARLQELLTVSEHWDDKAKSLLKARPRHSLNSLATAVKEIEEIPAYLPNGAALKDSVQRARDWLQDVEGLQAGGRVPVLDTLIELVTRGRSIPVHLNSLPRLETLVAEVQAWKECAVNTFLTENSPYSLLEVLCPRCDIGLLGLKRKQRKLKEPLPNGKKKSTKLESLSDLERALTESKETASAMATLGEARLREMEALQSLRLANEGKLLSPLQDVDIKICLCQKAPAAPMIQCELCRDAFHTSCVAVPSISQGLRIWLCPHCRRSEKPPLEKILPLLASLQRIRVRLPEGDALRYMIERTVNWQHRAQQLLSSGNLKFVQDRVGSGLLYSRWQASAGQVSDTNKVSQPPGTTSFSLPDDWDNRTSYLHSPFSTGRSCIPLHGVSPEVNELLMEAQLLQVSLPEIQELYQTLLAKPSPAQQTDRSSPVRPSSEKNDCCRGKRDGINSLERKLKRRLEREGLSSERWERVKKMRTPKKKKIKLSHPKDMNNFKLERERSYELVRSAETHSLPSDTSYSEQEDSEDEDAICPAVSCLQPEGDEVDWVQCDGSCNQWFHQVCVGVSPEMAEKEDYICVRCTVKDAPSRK
Procedure: (§1) FLAG tagged full length recombinant JARID1A and PLU1 proteins were purified from Sf9 insect cells to near homogeneity. The demethylation reaction buffer contained 50 mM TrisCl pH 7.5, 0.01% Triton X-100, 0.005% BSA, 1 mM ascorbate (Cat# A4034, Sigma Aldrich), 1.7 μM α-ketoglutarate (# K2010, Sigma Aldrich) and 20 μM Fe2(NH4)2(SO4)2 (Cat# F1543, Sigma Aldrich). In a 25 μL demethylation reaction system, 20 nM recombinant JARID1A or PLU1 proteins and 4 μM H3K4me3 peptide (1-21 aa), which can be biotinylated or unlabelled, were incubated with compounds for 10 minutes, and then α-ketoglutarate and Fe2(NH4)2(SO4)2 were added to initiate the reaction. All of the reactions were incubated for 45 minutes at room temperature, and then 25 μl of 1 N HCl was added to quench the reactions. After termination, plates were sealed and frozen at −80° C. for analysis.
(§2) All the reactions were read by RapidFire™ HT-MS platform developed in BioCius Inc, and described in detail (Assay and Drug Development Technologies, 2004; 2(4): 373-381). Briefly, plates were thawed and immediately analyzed using RapidFire™ system coupled to a Sciex API4000 triple quadrapole mass spectrometer. The samples were delivered directly from the plate to a clean-up cartridge (BioCius column A) to remove nonvolatile assay components with 0.1% formic acid in a 3-sec wash cycle. The peptide substrate and demethylated product were coeluted to the mass spectrometer with 80% acetonitrile, 0.1% formic acid. Both the substrate and product signals were read at their +5 charge species, and the conversion from substrate to product assessed by [H3K4me2 Read]/[H3K4me2 Read+H3K4me3 Read].

JARID1A = target: T3, JARID1A (Homo sapiens, UniProt P29375); experiment: JARID1A demethylase assay on H3K4Me3 peptide (RapidFire HT-MS)
T3 construct: FLAG tagged full length recombinant JARID1A and PLU1 proteins were purified from Sf9 insect cells; FLAG; made in house; host or cells: Sf9 insect cells
T3 sequence (P29375 whole entry): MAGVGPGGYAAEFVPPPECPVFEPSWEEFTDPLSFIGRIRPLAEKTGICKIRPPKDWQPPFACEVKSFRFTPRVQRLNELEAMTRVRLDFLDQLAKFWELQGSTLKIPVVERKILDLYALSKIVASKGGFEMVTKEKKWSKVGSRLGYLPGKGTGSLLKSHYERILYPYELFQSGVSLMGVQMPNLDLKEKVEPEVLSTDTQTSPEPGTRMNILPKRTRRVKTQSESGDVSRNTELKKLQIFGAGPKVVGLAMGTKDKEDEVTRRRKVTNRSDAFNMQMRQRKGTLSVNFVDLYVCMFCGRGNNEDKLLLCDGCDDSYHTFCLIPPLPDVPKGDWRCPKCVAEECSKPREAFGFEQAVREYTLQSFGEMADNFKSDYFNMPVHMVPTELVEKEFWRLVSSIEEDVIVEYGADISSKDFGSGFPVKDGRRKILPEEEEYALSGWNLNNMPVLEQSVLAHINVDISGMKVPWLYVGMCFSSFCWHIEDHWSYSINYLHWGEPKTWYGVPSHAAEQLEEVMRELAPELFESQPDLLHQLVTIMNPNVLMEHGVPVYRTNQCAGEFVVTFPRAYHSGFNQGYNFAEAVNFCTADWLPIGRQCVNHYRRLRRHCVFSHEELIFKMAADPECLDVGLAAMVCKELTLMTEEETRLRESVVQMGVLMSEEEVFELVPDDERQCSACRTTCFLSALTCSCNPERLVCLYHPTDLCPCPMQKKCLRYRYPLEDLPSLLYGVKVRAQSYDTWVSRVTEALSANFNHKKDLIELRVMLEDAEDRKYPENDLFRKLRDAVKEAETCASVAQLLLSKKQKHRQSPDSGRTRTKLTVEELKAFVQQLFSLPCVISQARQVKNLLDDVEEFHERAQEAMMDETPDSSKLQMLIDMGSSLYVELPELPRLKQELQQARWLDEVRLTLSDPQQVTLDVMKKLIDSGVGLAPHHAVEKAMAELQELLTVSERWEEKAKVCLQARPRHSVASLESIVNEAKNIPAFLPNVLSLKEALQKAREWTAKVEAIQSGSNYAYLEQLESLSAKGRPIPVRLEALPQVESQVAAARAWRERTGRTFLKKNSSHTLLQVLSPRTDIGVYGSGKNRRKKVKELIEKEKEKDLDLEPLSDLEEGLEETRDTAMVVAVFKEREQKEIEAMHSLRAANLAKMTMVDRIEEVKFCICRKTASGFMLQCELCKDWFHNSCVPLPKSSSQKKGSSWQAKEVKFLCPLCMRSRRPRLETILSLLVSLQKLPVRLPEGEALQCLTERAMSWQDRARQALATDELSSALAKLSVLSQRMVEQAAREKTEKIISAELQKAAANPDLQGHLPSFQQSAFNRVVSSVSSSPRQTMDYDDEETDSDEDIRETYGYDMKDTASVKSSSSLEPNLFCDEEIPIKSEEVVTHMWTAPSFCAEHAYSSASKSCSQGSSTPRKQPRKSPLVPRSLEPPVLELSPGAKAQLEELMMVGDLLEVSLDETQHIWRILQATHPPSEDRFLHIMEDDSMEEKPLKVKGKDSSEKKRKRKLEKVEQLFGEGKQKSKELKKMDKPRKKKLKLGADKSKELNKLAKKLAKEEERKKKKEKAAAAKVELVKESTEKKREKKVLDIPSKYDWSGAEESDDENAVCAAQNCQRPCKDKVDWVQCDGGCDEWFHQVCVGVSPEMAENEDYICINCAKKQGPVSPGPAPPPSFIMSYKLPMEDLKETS
Procedure: as §1, §2

SMILES | IC50 (GASC1) [nM] | IC50 (PLU-1) [nM] | IC50 (JARID1A) [nM]
CCOC(=O)Cc1c(C)[nH]c2c(C#N)c(C)nn2c1=O [Compound I-1] | ≥ 50000 |  | 
CCOC(=O)Cc1c(C)[nH]c2c(C#N)cnn2c1=O [Compound I-2] | ≥ 50000 |  | 
N#Cc1cnn2c(=O)c3c([nH]c12)CCC3 [Compound I-3] | 1000 to 10000 |  | 
CCc1c(C)[nH]c2c(C#N)c(C)nn2c1=O [Compound I-5] | 1000 to 10000 |  | 
Cc1[nH]c2c(C#N)cnn2c(=O)c1Cc1ccccc1 [Compound I-6] | ≥ 50000 |  | 
Cc1nn2c(=O)c3c([nH]c2c1C#N)CCCC3 [Compound I-12] | 10000 to 50000 |  | 
CCc1nn2c(=O)c3c([nH]c2c1C#N)CCCC3 [Compound I-13] | ≥ 50000 |  | 
Cn1c2c(c(=O)n3ncc(C#N)c13)CCCC2 [Compound I-14] | ≥ 50000 |  | 
Cc1nn2c(=O)c(C(C)C)c(C)[nH]c2c1C#N [Compound I-15] | 1000 to 10000 |  | 
CCCc1c(C)[nH]c2c(C#N)c(C)nn2c1=O [Compound I-16] | 1000 to 10000 |  | 
CCCc1c(C)[nH]c2c(C#N)cnn2c1=O [Compound I-17] | ≤ 1000 |  | 
N#Cc1cnn2c(=O)c3c(n(Cc4ccccc4)c12)CCCC3 [Compound I-18] | ≥ 50000 |  | 
N#Cc1cnn2c(=O)c3c(n(-c4ccccc4)c12)CCCC3 [Compound I-19] | ≥ 50000 |  | 
Cc1c(C(C)C)c(=O)n2ncc(C#N)c2n1-c1ccccc1 [Compound I-20] | 1000 to 10000 |  | 
CCc1c(CO)[nH]c2c(C#N)cnn2c1=O [Compound I-21] | ≤ 1000 | ≤ 1000 | ≤ 1000
CCc1c(CO)[nH]c2c(C#N)c(C)nn2c1=O [Compound I-22] | 1000 to 10000 |  | 
CCc1c(COC)[nH]c2c(C#N)cnn2c1=O [Compound I-23] | 1000 to 10000 | ≤ 1000 | ≤ 1000
CCc1c(COC)[nH]c2c(C#N)c(C)nn2c1=O [Compound I-24] | 1000 to 10000 |  | 
CCOC(=O)c1[nH]c2c(C#N)cnn2c(=O)c1CC [Compound I-25] | ≤ 1000 | ≤ 1000 | ≤ 1000
CCOC(=O)c1[nH]c2c(C#N)c(C)nn2c(=O)c1CC [Compound I-26] | 1000 to 10000 |  | 
COCCOc1c2c(nc3c(C#N)cnn13)CCCC2 [Compound I-27] | ≥ 50000 |  | 
COCCc1c(C)[nH]c2c(C#N)cnn2c1=O [Compound I-28] | ≥ 50000 |  | 
CCc1c(C)n(C)c2c(C#N)cnn2c1=O [Compound I-29] | ≥ 50000 | 1000 to 10000 | 1000 to 10000
CCCc1c(COC)[nH]c2c(C#N)cnn2c1=O [Compound I-31] | 1000 to 10000 |  | 

SMILES | IC50 (GASC1) [nM] | IC50 (PLU-1) [nM] | IC50 (JARID1A) [nM]
CCc1c(CCCOC)[nH]c2c(C#N)cnn2c1=O [Compound I-32] | 1000 to 10000 |  | 
CCCc1c(CO)[nH]c2c(C#N)cnn2c1=O [Compound I-33] | 1000 to 10000 |  | 
C=CCc1c(C)[nH]c2c(C#N)cnn2c1=O [Compound I-34] | ≤ 1000 |  | 
CCc1c(C(C)O)[nH]c2c(C#N)cnn2c1=O (stereo not shown) [Compound I-35] | 1000 to 10000 |  | 
CCc1c(C)n(CCN(C)C)c2c(C#N)cnn2c1=O [Compound I-36] | ≥ 50000 |  | 
CCc1c2n(c3c(C#N)cnn3c1=O)CCC2 [Compound I-37] | ≥ 50000 |  | 
CCc1c(CCCO)[nH]c2c(C#N)cnn2c1=O [Compound I-38] | ≤ 1000 |  | 
Cc1[nH]c2c(C#N)cnn2c(=O)c1CC(C)C [Compound I-39] | 1000 to 10000 |  | 
Cc1[nH]c2c(C#N)cnn2c(=O)c1CCO [Compound I-40] | 1000 to 10000 |  | 
CCc1c(C(F)(F)F)[nH]c2c(C#N)cnn2c1=O [Compound I-41] | ≤ 1000 |  | 
CCc1c(-c2ccoc2)[nH]c2c(C#N)cnn2c1=O [Compound I-42] | ≤ 1000 |  | 
CCCc1c(C(=O)OCC)[nH]c2c(C#N)cnn2c1=O [Compound I-43] | 1000 to 10000 |  | 
CCc1c(Cc2ccccc2)[nH]c2c(C#N)cnn2c1=O [Compound I-44] | ≤ 1000 |  | 
CCOCc1[nH]c2c(C#N)cnn2c(=O)c1CC [Compound I-45] | ≤ 1000 |  | 
C#CCc1c(C)[nH]c2c(C#N)cnn2c1=O [Compound I-46] | ≤ 1000 |  | 
CCc1c(-c2ccccc2)[nH]c2c(C#N)cnn2c1=O [Compound I-47] | ≤ 1000 |  | 
CCNC(=O)c1[nH]c2c(C#N)cnn2c(=O)c1CC [Compound I-48] | 1000 to 10000 |  | 
CCc1c(C(=O)NC)[nH]c2c(C#N)cnn2c1=O [Compound I-49] | 1000 to 10000 | 1000 to 10000 | ≤ 1000
C=CCc1c(CO)[nH]c2c(C#N)cnn2c1=O [Compound I-50] | 1000 to 10000 |  | 
C=CCc1c(COC)[nH]c2c(C#N)cnn2c1=O [Compound I-51] | ≤ 1000 |  | 
CCc1c(CNC)[nH]c2c(C#N)cnn2c1=O [Compound I-52] | 1000 to 10000 |  | 
CCc1c(C(=O)OCc2ccccc2)[nH]c2c(C#N)cnn2c1=O [Compound I-53] | 1000 to 10000 |  | 
COc1c2c(nc3c(C#N)cnn13)CCCC2 [Compound I-54] | 1000 to 10000 |  | 
N#Cc1cnn2c(=O)c3ccccc3[nH]c12 [Compound I-55] | 1000 to 10000 |  | 
